Columns and labels:
[1] = In vitro drug release from alginate capsules loaded with crystalline or amorphous formulations; format: physicochemical; conditions: accelerated release conditions (+ SDS)
Experimental: Release study was carried out in 3 different media, a normal saline-Isopropyl alcohol (10%) mixture, a phosphate buffer (pH 7.4), or for accelerated condition with phosphate buffered saline (pH 7.4) either with 0.1% w/v or 03% w/v SDS. Release study at NS+10% IPA was carried out in 2 ml medium at 37° C. Sampling was carried out by replacement of 1.5 ml of release medium by total replacement of release medium with fresh medium. […] For release in accelerated condition (PBS+SDS), the same time points were followed while 20 μl of drug loaded capsules were incubated in 2 ml release medium to achieve sink conditions. Drug concentration in samples was measured by reverse phase HPLC on C-18 column with a mobile phase or using UV calibrated system. An isocratic mode was set at a flow rate of 0.5-2 ml/min and a different wave-length of nm and 20-50 μl of samples was injected into an HPLC system (Waters, LC-Module-I) or UV analyzed. Calibration curves were prepared in concentration range of 0.05-10 μg/ml. Using prepared calibration curves, drugs concentration in different release samples were calculated.

C57BL/6 mice = assay: Anti-fibrotic screening of amorphous drug formulations in 500 μm alginate capsules, 2-week intraperitoneal implantation; format: in vivo; conditions: conclusion; alginate hydrogel, ceramic, glass, PDMS and polystyrene beads
Description: For screening of anti-fibrotic drug activity, amorphous drug formulations were encapsulated inside 500 μm alginate capsules. Broad-spectrum anti-inflammatory agents curcumin, dexamethasone, and rapamycin have been used for preventing fibrosis of various biomaterials, such as polymer PLGA and hydrogel alginate. A panel of lead drug candidates (e.g., compounds of Formulae I-X) including the traditional broad-spectrum anti-inflammatories as well as agents targeted to essential macrophage biology pathways (e.g., TNFα, NFκB, p110δ/PI3K, TGFβ, and CSF1R) were selected. […] SLG20 alginate hydrogel spheres with these lead drug candidates were prepared as amorphous formulations to investigate the effect of macrophage immunomodulation on foreign body response. Drugs were encapsulated in amorphous form prepared by first dissolving in an organic solvent (e.g., vehicle in FIGS. 7, 9) then by mixing with alginate aqueous solution. Efficacy in preventing fibrosis was assessed in C57BL/6 mice at 2-weeks post implantation into the intraperitoneal (IP) cavity. Drug-containing spheres (500 μl/animal) were then implanted into the intraperitoneal space of C57BL/6 mice for 14 days. After this period, spheres were harvested and studied for cellular deposition and fibrosis.
All animal protocols were approved by the MIT Committee on Animal Care, and all surgical procedures and post-operative care was supervised by MIT Division of Comparative Medicine veterinary staff. Immune-competent male non-diabetic or STZ-induced diabetic C57BL/6 mice (Jackson Laboratory, Bar Harbor, Me.) were anesthetized with 3% isoflurane in oxygen and had their abdomens shaved and sterilized using betadine and isopropanol. Preoperatively, all mice also received a 0.05 mg/kg dose of buprenorphine subcutaneously as a pre-surgical analgesic, along with 0.3 mL of 0.9% saline subcutaneously to prevent dehydration. A […] incision was made along the midline of the abdomen and the peritoneal lining was exposed using blunt dissection. […]

[2] = test system: inflammatory macrophage markers Sphk1, TNFα, Arg1, IL1; assay: NanoString multiplexed gene expression analysis of retrieved capsules; format: in vivo, C57BL/6 mice; conditions: amorphous drug-loaded capsules, 2 weeks IP; CSF1R-targeting agents compared
Experimental: RNAs for mock-implanted (mock) controls, or for various drug-loaded 0.5 mm diameter alginate sphere-bearing mice (n=4/group) were isolated from tissue samples taken at various time points after implantation, as described. Respective RNAs were quantified, diluted to the appropriate concentration (100 ng/μl), and then 500 ng of each sample was processed according to NanoString manufacturer protocols for expression analysis via our customized multiplexed gene mouse macrophage subtyping panel. RNA levels (absolute copy numbers) were obtained following nCounter (NanoString Technologies Inc., Seattle, Wash.) quantification, and group samples were analyzed using nSolver analysis software (NanoString Technologies Inc., Seattle, Wash.).

Compound: COc1ccc(COc2ccc(Cc3cnc(N)nc3N)cc2OC)cc1 [GW2580, 5-[[3-Methoxy-4-[(4-methoxyphenyl)methoxy]phenyl]methyl]-2,4-pyrimidinediamine]
- drug release profile ([1]; amorphous form in 2000 μm alginate capsules): Higher drug release
- drug release profile ([1]; pure crystalline formulations in 2000 μm alginate capsules): released the drug more slowly initially, but continued releasing drugs for a much longer period of time
- efficacy in inhibiting fibrosis of implanted biomaterial (C57BL/6 mice): demonstrated efficacy in inhibiting fibrosis
- gene expression responses [2]: almost identical gene expression responses

— patent US10851069B2, “Compositions of crystallized hydrophobic compounds and methods of making and using same” (Massachusetts Institute of Technology, priority 2016, dated 2020)
